For series [1], the system named is Z-138. Kind of series: Induction of apoptosis in human Z138 cells assessed as early apoptotic cells at 0.4 nM incubated for 168 hrs by Annexin V-FITC/PI staining based flow cytometric analysis (reference value: 1.68 %). In kind it is functional. For orientation: Flow cytometry measures light scatter and fluorescence of single cells or particles in a stream.
A short description of series [2]: Hematological toxicity in human CD34-positive hematopoietic stem/progenitor cell supplemented with megakaryocytic lineage assessed as reduction in cell viability incubated for 14 days by luminometric analysis. In kind it is cell-based.
The nature of series [3]: Volume of distribution in Sprague-Dawley rat at 2 mg/kg, iv by LC-MS/MS analysis. In kind it is ADME, organism-based. The note with it: in vivo.
The target of series [4] is T1, Protein arginine N-methyltransferase 7 (Homo sapiens, UniProt Q9NVM4).
T1 sequence (Q9NVM4 whole entry): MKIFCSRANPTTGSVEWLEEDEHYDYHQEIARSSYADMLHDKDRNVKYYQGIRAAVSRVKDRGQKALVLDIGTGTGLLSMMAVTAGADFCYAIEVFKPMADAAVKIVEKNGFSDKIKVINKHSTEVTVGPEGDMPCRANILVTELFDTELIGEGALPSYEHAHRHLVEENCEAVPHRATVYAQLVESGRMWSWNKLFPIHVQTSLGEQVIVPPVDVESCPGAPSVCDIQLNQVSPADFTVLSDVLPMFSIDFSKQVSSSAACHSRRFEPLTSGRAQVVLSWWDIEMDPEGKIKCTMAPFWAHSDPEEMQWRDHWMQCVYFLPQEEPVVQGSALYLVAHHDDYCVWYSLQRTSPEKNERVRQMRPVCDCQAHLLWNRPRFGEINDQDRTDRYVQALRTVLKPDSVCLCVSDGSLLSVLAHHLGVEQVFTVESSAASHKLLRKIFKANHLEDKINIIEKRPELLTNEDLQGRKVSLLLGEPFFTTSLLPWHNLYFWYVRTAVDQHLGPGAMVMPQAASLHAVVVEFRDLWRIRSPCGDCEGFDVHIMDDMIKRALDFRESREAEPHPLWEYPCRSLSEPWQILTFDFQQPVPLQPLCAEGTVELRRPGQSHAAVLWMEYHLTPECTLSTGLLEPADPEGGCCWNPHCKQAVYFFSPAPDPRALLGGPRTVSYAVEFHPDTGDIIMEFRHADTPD
Kind of series: Inhibition of PRMT7 (unknown origin).

Series [5] can be described thus: Cmax in Sprague-Dawley rat at 2 mg/kg, iv by LC-MS/MS analysis. The series is classed as ADME, organism-based. The note with it: in vivo.
A short description of series [6]: Clearance in Sprague-Dawley rat at 2 mg/kg, iv by LC-MS/MS analysis. The series is classed as ADME, organism-based. The note with it: in vivo.
Series [7] in a line: Half-life in Sprague-Dawley rat at 2 mg/kg, iv by LC-MS/MS analysis. The following applies: in vivo. The series is classed as ADME, organism-based.
For series [8], the system named is Z-138. The series can be described thus: Induction of apoptosis in human Z138 cells assessed as viable cells at 10.0 nM incubated for 168 hrs by Annexin V-FITC/PI staining based flow cytometric analysis (reference value: 94.4 %). The following applies: read-out: Activity. The series is classed as functional.
For series [9], the system named is Z-138. The series can be described thus: Induction of apoptosis in human Z138 cells assessed as late apoptotic cells at 2.0 nM incubated for 168 hrs by Annexin V-FITC/PI staining based flow cytometric analysis (reference value: 0.37 %). In kind it is functional.
The nature of series [10]: Oral bioavailability in Sprague-Dawley rat at 10 mg/kg by LC-MS/MS analysis. In kind it is ADME, organism-based. The note with it: in vivo.
A short description of series [11]: Toxicity in Sprague-Dawley rat assessed as morphological changes in thymus at 31.25 to 125 mg/kg, po administered once a day for 14 days by H and E staining based analysis. In kind it is organism-based. The note with it: in vivo, 336 h, dose 31.25-125 mg/kg, time 14 day.
For series [12], the target named is Cytochrome P450 3A4 (Homo sapiens, UniProt P08684). Kind of series: Inhibition of CYP3A4 (unknown origin) using testosterone as substrate. In kind it is ADME.
Chain of Cytochrome P450 3A4 (P08684 whole entry): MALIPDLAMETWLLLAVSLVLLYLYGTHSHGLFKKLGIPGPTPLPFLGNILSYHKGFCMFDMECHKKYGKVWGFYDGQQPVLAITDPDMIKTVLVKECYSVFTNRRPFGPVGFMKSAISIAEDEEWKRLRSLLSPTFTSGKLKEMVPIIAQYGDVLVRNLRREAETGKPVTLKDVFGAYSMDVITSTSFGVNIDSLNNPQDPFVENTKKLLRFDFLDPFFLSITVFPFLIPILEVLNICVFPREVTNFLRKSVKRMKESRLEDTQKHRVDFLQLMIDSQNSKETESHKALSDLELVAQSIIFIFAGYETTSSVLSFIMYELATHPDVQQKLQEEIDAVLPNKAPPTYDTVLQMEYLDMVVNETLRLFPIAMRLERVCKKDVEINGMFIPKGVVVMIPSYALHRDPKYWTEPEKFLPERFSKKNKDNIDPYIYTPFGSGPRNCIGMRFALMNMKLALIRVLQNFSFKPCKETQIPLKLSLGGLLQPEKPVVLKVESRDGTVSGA
A short description of series [13]: Protein binding in dog plasma. In kind it is ADME, cell-free, Canis lupus familiaris. The note with it: read-out: PPB (converted).
Series [14] is described as follows: Metabolic stability in rat liver microsomes assessed as half-life at 1 uM measured upto 240 mins. The series is classed as ADME, Microsome. (Liver microsomes are vesicles of endoplasmic reticulum, rich in cytochrome P450 enzymes.)
Series [15] concerns MOLM-13. The series can be described thus: Antiproliferative activity against human MOLM-13 cells measured after 4 to 5 days by CCK-8 assay. In kind it is functional, cell-based.
The target of series [16] is Cytochrome P450 2C19 (Homo sapiens, UniProt P33261). Kind of series: Inhibition of CYP2C19 (unknown origin). In kind it is ADME.
Chain of Cytochrome P450 2C19 (P33261 whole entry): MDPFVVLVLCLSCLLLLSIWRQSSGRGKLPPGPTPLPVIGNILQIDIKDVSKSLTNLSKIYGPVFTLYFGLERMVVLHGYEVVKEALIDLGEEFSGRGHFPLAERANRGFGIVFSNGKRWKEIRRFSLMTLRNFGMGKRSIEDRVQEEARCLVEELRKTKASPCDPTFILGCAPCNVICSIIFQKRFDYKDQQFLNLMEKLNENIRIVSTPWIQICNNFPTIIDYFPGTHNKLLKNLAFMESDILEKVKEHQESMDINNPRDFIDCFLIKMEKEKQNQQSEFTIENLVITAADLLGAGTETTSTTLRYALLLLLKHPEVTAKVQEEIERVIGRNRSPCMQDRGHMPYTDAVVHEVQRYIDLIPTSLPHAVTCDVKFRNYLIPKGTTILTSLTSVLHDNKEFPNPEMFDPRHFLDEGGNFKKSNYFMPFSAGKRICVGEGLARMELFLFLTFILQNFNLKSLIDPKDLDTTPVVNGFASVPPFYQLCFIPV
Series [17] concerns T47D. Kind of series: Antiproliferative activity against human T47D cells measured after 4 to 5 days by CCK-8 assay. In kind it is functional, cell-based. (Tetrazolium dyes change colour on reduction, which living cells bring about.)
The subject of series [18] is Z-138. The series can be described thus: Antitumor activity against human Z138 cells xenografted in female SCID.BG nude mouse assessed as tumor growth inhibition at 12.5 mg/kg, po administered twice a day for 21 days relative to control. In kind it is functional. The following applies: Z-138, 504 h, time 21 day, read-out: TGI.
Series [19] can be described thus: Toxicity in Sprague-Dawley rat assessed as morphological changes in bone marrow at 31.25 to 125 mg/kg, po administered once a day for 14 days by H and E staining based analysis. The note with it: in vivo, 336 h, dose 31.25-125 mg/kg, time 14 day. In kind it is organism-based.
Series [20] can be described thus: Metabolic stability in human liver microsomes assessed as half-life at 1 uM measured upto 240 mins. The series is classed as ADME, Microsome.
A short description of series [21]: Protein binding in Sprague-Dawley rat plasma. The series is classed as ADME, cell-free. The note with it: read-out: PPB (converted).
Series [22] is described as follows: Toxicity in Sprague-Dawley rat assessed as structural changes in bone marrow at 31.25 to 125 mg/kg, po administered once a day for 14 days by H and E staining based analysis. In kind it is organism-based. The following applies: in vivo, 336 h, dose 31.25-125 mg/kg, time 14 day.
The subject of series [23] is NCI-H1299. Kind of series: Antiproliferative activity against human NCI-H1299 cells measured after 4 to 5 days by CCK-8 assay. In kind it is functional, cell-based.
Series [24] can be described thus: Toxicity in Sprague-Dawley rat assessed as structural changes in thymus at 31.25 to 125 mg/kg, po administered once a day for 14 days by H and E staining based analysis. The series is classed as organism-based. The note with it: in vivo, 336 h, dose 31.25-125 mg/kg, time 14 day.
In series [25] the target is Protein arginine N-methyltransferase 5 (Homo sapiens) (UniProt O14744). Kind of series: In vivo inhibition of PRMT5 in female SCID.BG nude mouse xenografted with human Z138 cells assessed as decrease in SmD3me2s level at 12.5 to 50 mg/kg, po administered twice a day for 21 days by Western blotting analysis. In kind it is functional, organism-based. The following applies: dose 12.5-50 mg/kg, time 21.0 day.
Chain of Protein arginine N-methyltransferase 5 (Homo sapiens) (O14744 whole entry): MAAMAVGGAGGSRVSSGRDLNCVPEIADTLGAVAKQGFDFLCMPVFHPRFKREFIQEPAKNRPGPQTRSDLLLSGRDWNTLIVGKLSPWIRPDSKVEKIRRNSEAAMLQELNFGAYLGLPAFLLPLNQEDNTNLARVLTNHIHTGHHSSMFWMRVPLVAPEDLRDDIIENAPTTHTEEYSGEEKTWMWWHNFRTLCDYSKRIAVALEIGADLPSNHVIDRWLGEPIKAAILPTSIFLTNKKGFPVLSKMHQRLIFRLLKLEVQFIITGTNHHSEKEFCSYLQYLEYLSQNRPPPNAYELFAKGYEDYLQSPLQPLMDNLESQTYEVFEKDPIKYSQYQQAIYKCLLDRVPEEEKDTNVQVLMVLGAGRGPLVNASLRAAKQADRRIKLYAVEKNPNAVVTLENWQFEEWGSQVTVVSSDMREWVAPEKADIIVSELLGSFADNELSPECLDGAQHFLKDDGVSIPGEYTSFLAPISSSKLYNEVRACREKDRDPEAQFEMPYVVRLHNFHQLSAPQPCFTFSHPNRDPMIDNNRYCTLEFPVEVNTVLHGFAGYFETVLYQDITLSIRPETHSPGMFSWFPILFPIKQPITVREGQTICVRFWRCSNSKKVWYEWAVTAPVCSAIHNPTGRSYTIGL

Series [26] in a line: Toxicity in Sprague-Dawley rat assessed as structural changes in caecum at 31.25 to 125 mg/kg, po administered once a day for 14 days by H and E staining based analysis. In kind it is organism-based. The note with it: in vivo, 336 h, dose 31.25-125 mg/kg, time 14 day.
Series [27] deals with Cytochrome P450 2C8 (Homo sapiens, UniProt P10632). Kind of series: Inhibition of CYP2C8 (unknown origin). The series is classed as ADME.
Chain of Cytochrome P450 2C8 (P10632 whole entry): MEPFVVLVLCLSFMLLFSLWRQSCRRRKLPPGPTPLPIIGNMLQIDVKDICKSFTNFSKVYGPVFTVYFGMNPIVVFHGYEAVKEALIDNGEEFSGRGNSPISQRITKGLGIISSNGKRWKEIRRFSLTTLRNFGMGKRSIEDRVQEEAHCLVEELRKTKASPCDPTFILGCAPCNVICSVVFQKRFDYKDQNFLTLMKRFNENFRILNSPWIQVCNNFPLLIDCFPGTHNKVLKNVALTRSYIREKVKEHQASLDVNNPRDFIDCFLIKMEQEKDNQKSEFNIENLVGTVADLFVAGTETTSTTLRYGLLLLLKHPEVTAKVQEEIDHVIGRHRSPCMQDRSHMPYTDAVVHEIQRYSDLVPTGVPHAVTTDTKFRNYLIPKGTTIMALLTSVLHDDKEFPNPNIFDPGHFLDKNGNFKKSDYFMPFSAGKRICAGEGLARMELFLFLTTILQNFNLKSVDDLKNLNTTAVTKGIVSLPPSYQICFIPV
Series [28] can be described thus: Toxicity in Sprague-Dawley rat assessed as structural changes in stomach at 31.25 to 125 mg/kg, po administered once a day for 14 days by H and E staining based analysis. The series is classed as organism-based. The note with it: in vivo, 336 h, dose 31.25-125 mg/kg, time 14 day.
Series [29] deals with PRMT5/MEP50 complex (Homo sapiens, UniProt O14744+Q9BQA1). Kind of series: Binding affinity to PRMT5/MEP50 (unknown origin) assessed as dissociation rate constant (koff) by SPR analysis.
Chain of PRMT5/MEP50 complex (O14744 whole entry): as the sequence (O14744 whole entry) above
Chain of PRMT5/MEP50 complex (Q9BQA1 whole entry): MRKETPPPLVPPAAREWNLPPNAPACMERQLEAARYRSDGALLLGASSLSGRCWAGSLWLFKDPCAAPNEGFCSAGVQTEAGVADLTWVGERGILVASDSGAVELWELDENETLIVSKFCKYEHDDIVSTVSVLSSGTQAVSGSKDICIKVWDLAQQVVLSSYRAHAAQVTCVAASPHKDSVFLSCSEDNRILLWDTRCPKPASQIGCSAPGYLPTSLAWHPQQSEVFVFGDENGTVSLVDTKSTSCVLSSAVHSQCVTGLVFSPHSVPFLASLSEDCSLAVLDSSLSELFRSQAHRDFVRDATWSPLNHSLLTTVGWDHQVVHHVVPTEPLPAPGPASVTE
Series [30] is described as follows: Toxicity in Sprague-Dawley rat assessed as body weight loss at 31.25 to 125 mg/kg, po administered once a day for 14 days. The following applies: in vivo, 336 h, dose 31.25-125 mg/kg, time 14 day. In kind it is organism-based.
Series [31] in a line: Metabolic stability in monkey liver microsomes assessed as half-life at 1 uM measured upto 240 mins. The series is classed as ADME, Macaca mulatta, Microsome. The following applies: rhesus monkey.
Series [32] can be described thus: Protein binding in monkey plasma. In kind it is ADME, cell-free, Macaca mulatta. The note with it: rhesus monkey, read-out: PPB (converted).
Series [33] has as its target Cytochrome P450 2B6 (Homo sapiens, UniProt P20813). Kind of series: Inhibition of CYP2B6 (unknown origin). The series is classed as ADME.

Where only a bound is given, the exact number is not on record here.

Chain of Cytochrome P450 2B6 (P20813 whole entry): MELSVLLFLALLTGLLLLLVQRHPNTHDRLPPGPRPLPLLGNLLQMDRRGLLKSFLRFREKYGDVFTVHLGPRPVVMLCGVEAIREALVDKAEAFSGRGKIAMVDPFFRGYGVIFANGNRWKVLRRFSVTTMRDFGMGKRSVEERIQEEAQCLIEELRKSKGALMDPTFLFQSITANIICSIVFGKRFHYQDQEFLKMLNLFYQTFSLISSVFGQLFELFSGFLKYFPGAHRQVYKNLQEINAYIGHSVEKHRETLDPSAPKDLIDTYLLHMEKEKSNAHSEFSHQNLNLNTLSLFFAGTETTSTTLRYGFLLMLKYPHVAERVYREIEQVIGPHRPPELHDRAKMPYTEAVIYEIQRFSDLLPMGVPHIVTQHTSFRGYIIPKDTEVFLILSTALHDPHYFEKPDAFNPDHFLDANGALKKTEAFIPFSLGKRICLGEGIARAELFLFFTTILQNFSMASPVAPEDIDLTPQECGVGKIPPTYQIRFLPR

Usually IC50 stands for the concentration that inhibits the measured activity by half. Broadly, the Vd is the apparent volume that relates the amount in the body to the concentration in plasma or blood. For orientation: Cmax means the peak of the concentration-time curve. Usually clearance stands for a measure of how efficiently the substance is removed, as volume per time. What is called half-life is the time needed for the level to fall by half in the phase considered. As a reminder, the bioavailability is the share of a dose that reaches the circulation, judged against a reference dose that is usually intravenous. Take `CC(=O)N1CCC(Nc2cc(C(=O)NC[C@H](O)CN3CCc4ccccc4C3)ncn2)CC1` [PEMRAMETOSTAT]: the Activity in [1] was found to be 1.53%; in [9] it was 0.31%. For the same compound, the IC50 at 14 days in series [2] worked out at 55 nM. Further, the Vd in [3] worked out at 1.4 L/kg. In series [4], this compound came in with an IC50 of over 10000 nM. The compound also returned a Cmax in [5] of 1830 ng/mL. In series [6], the clearance was 56.7 mL/min/kg. Besides, in series [7], the half-life was 18 min. For the same compound, the viability at 0.01 µM in series [8] turned out to be 86%. Besides, the bioavailability in series [10] worked out at 13.5%.

Consider `CC(=O)N1CC2(CC(Nc3cc4c(cn3)C3(CC3)CN(C[C@H](O)CN3CCc5ccccc5C3)C4=O)C2)C1`, for which the Activity entry in series [11] was “Non-toxic”; in series [1] it was 1.89%; in series [19], “Non-toxic”; in series [22] it was “Non-toxic”; in series [24], “Non-toxic”; in series [26] it was “Non-toxic”. Further, the figures for the Activity in series [9], in [28] and in [30] were 9.25%, “Non-toxic” and “Non-toxic”, respectively. In addition, the IC50 in [12] was over 50000 nM; in series [15] it was 30.1 nM; in series [16], over 50000 nM; in series [17], 2.25 nM; in [23] it was 55.6 nM; in series [4], over 10000 nM. For the same compound, the 50% inhibitory concentration (IC50) in [27] and in series [33] was over 50000 nM throughout. Besides, the IC50 at 14 days in series [2] amounted to 106 nM. For the same compound, the fraction unbound in series [13] is 0.0204; in series [21] it was 0.04; in series [32] it was 0.11. The half-life at 1 µM in series [14] stood at 85.6 min; in [20], 17.5 min; in [31] it was 18.2 min. In addition, the inhibition in vivo at 12.5 mg/kg in [18] stood at 104%. For the same compound, the Vd in series [3] worked out at 1.4 L/kg. Also, the Cmax in [5] worked out at 1370 ng/mL. In addition, the inhibition result in series [25] was “Active; More Potent Than Gsk3326595”. In series [6], this compound showed a clearance of 41.7 mL/min/kg. Besides, the half-life in [7] is 24 min. The viability at 0.01 µM in [8] was determined as 9.21%. In addition, the koff in series [29] is listed as 3.62 10^-2/s. Moreover, in [10], the bioavailability stood at 26.7%.

For the origin of these results see ChEMBL document CHEMBL6087464, “Design, Synthesis, and Biological Evaluation of 3,4-Dihydroisoquinolin-1(2H)-one Derivatives as Protein Arginine Methyltransferase 5 Inhibitors for the Treatment of Non-Hodgkin's Lymphoma” (J Med Chem, 2025).
